Common to all, as to format: physicochemical
Series [1] can be described thus: Solubility in water/DMSO at 60° C. The settings on record: for solubility / solubility at 24 h: Water/DMSO at 60° C.; for solubility: hemihydrate; for solubility at 24 h: water/DMSO, 60 °C, organic solvent or mixture, thermodynamic from solid. The method, then: A solution of DMSO/water with known water content was added to a glass vial and heated to 60° C. Crystals of Compound 1 Crystalline Form I or Compound 1 Crystalline Form A were added to the vial until a suspension was obtained. The suspension was stirred via magnetic stirring and incubated for 24 hrs at 60° C. After incubation, the suspension was filtered at 60° C. 10 μL of the filtrate was sampled and diluted with 990 μL of acetonitrile/water (1/1, v/v). Sample concentration of Compound 1 was determined by HPLC. […] The experimental solubility results are summarized below in Tables 5 and 6.

A short description of series [2]: Hygroscopicity of crystalline forms.
The nature of series [3]: Chemical and optical stability of crystalline forms on storage.
Series [4] is described as follows: Solubility in 200 mM phosphate buffer (pH 6.8). The settings on record: for solubility at 20 h: phosphate buffer, pH 6.8, aqueous buffer, thermodynamic from solid; for solubility: 20 hrs, hemihydrate. The method, then: About 2 mg of Compound 1 Crystalline Form A made in example 2 or Compound 1 Crystalline Form I made in example 3-2 and 2 mL of 200 mM phosphate buffer (pH 6.8) were added into a glass test tube. The test tube was shaken vigorously and incubated at 10° C., 20° C., 30° C. or 40° C. for 20 hrs. After the incubation, the suspension was centrifuged and the supernatant was filtered through a 0.22 μm pore membrane filter. The filtrate solutions were diluted 2-fold with 50 mM sodium perchlorate buffer (pH 2.5)/acetonitrile (1/1, v/v). Concentration was determined by HPLC.

Series [5] is described as follows: Estimated solubility at 55° C. in recrystallization solvents. Particulars: organic solvent or mixture, thermodynamic from solid. The method, then:
Recrystallization of Compound 1 Crystalline Form A was investigated in various solvent conditions. […] One of water, heptane or IPE was added as an anti-solvent to maintain the saturation state. Recrystallization in heptane yielded a sufficient amount of solids for analysis after gradual cooling. […] Crystals obtained from THF, trifluoroethanol, THF/heptane, chloroform/heptane, chloroform/IPE and trifluoroethanol/IPE were characterized as solvates by XRPD and TGA/DSC analysis. Crystals obtained from all other solvents were confirmed to be Compound 1 Crystalline Form A based on XRPD analysis.

[6] abbreviates: 60° C./75% relative humidity (open) for at least eight weeks.
[7] abbreviates: 80° C. (closed) for at least eight weeks.

These results are taken from US11746109B2, “Crystalline forms of 2-[(2S)-1-azabicyclo[2.2.2]oct-2-yl]-6-(3-methyl-1H-pyrazol-4-yl)thieno[3,2-d]pyrimidin-4(3H)-one hemihydrate” (TAKEDA PHARMACEUTICAL COMPANY LIMITED, priority 2016, dated 2023).

A word on the solubility: it is the dissolved amount per volume that the medium holds.

As to `Cc1[nH]ncc1-c1cc2nc([C@@H]3CC4CCN3CC4)[nH]c(=O)c2s1` [Compound 1 Crystalline Form A, 2-[(2S)-1-azabicyclo[2.2.2]oct-2-yl]-6-(3-methyl-1H-pyrazol-4-yl)thieno[3,2-d]pyrimidin-4(3H)-one hemihydrate], the solubility in series [1] (0 % water by volume) is 153.8 mg/mL; in series [1] (6 % water by volume), 73.4 mg/mL; in series [5] (solvent Acetone), < 2 mg/mL; in series [5] (solvent Acetonitrile), < 2 mg/mL; in series [5] (solvent Chloroform) it was 2.8 mg/mL; in series [5] (solvent Ethanol) it was 10.5 mg/mL. Besides, the solubility in series [5] (solvent Ethyl acetate) was < 2 mg/mL; in series [5] (solvent Formamide) it was 10 mg/mL; in series [5] (solvent IPA), 6.7 mg/mL; in series [5] (solvent MEK), 2.9 mg/mL; in series [5] (solvent Methanol), 33.3 mg/mL; in series [5] (solvent THF), 9.1 mg/mL. In addition, the solubility in series [5] (solvent Toluene) was < 2 mg/mL; in series [5] (solvent Trifluoroethanol), > 100 mg/mL. Further, the solubility at 24 h in series [1] (8.5 % water by volume) is 51 mg/mL; in series [1] (8.7 % water by volume), 44 mg/mL; in series [1] (9.8 % water by volume), 38.5 mg/mL; in series [1] (10.7 % water by volume), 32.1 mg/mL; in series [1] (11.3 % water by volume) it was 28.6 mg/mL; in series [1] (11.8 % water by volume), 25.7 mg/mL. Besides, the Hygroscopicity result in series [2] (at 25° C.) and in series [2] (at 40° C.) was “not hygroscopic” each time. Besides, the “Chemical and optical stability” value was “chemically and optically stable” in series [3] (setting [6]); “chemically and optically stable” in series [3] (setting [7]). The solubility at 20 h in series [4] (10 °C) is 0.102 mg/mL; in series [4] (20 °C), 0.104 mg/mL; in series [4] (30 °C) it was 0.115 mg/mL; in series [4] (40 °C), 0.136 mg/mL.

In the case of `Cc1[nH]ncc1-c1cc2nc([C@@H]3CC4CCN3CC4)[nH]c(=O)c2s1` [Compound 1 Crystalline Form I, 2-[(2S)-1-azabicyclo[2.2.2]oct-2-yl]-6-(3-methyl-1H-pyrazol-4-yl)thieno[3,2-d]pyrimidin-4(3H)-one hemihydrate], the “Solubility in water/DMSO relative to Compound 1 Crystalline Form A” value in series [1] (at 60° C. (FIG. 7)) is reported as “lower”. Besides, the solubility at 24 h in series [1] (0 % water by volume) stood at 134 mg/mL; in series [1] (3 % water by volume), 108 mg/mL; in series [1] (4 % water by volume) it was 92.2 mg/mL; in series [1] (4.5 % water by volume), 74.8 mg/mL; in series [1] (6 % water by volume) it was 65.8 mg/mL; in series [1] (8 % water by volume) it was 34.8 mg/mL. Also, the Hygroscopicity result in series [2] (at 25° C.) and in series [2] (at 40° C.) was “not hygroscopic” throughout. Moreover, the “Chemical and optical stability” value in series [3] (setting [6]) was “chemically and optically stable”; in series [3] (setting [7]) it was “chemically and optically stable”. Further, the solubility in series [4] (10 °C) was found to be 0.063 mg/mL; in series [4] (20 °C), 0.071 mg/mL; in series [4] (30 °C) it was 0.08 mg/mL; in series [4] (40 °C), 0.099 mg/mL.
